Assay [1] has as its target T1, CDK9/CycT1 (Homo sapiens, UniProt P50750).
T1 construct: Recombinant full-length His-tagged human CDK9 and CycT1; His; purchased Life Technologies PV4131; host or cells: insect cells
Briefly: CDK9/CycT1 high ATP kinase assay (TR-FRET). To be noted: 2 mM ATP; for pIC50: Method 1b; for Selectivity high ATP CDK9 over high ATP CDK2: IC50 (high ATP CDK2)/IC50 (high ATP CDK9): minimal values where CDK9 IC50 is at the assay limit of about 1-2 nM. The class given is biochemical. On the procedure: 1b. CDK9/CycT1 High ATP Kinase Assay
CDK9/CycT1-inhibitory activity of compounds of the present invention at a high ATP concentration after preincubation of enzyme and test compounds was quantified employing the CDK9/CycT1 TR-FRET assay as described in the following paragraphs.
Recombinant full-length His-tagged human CDK9 and CycT1, expressed in insect cells and purified by Ni-NTA affinity chromatography, were purchased from Life Technologies (Cat. No PV4131). As substrate for the kinase reaction biotinylated peptide biotin-Ttds-YISPLKSPYKISEG (C-terminus in amide form) was used which can be purchased e.g. form the company JERINI peptide technologies (Berlin, Germany).
(§1) For the assay 50 nl of a 100 fold concentrated solution of the test compound in DMSO was pipetted into either a black low volume 384 well microtiter plate or a black 1536 well microtiter plate (both Greiner Bio-One, Frickenhausen, Germany), 2 μl of a solution of CDK9/CycT1 in aqueous assay buffer [50 mM Tris/HCl pH 8.0, 10 mM MgCl2, 1.0 mM dithiothreitol, 0.1 mM sodium ortho-vanadate, 0.01% (v/v) Nonidet-P40 (Sigma)] were added and the mixture was incubated for 15 min at 22° C. to allow pre-binding of the test compounds to the enzyme before the start of the kinase reaction. […] The concentration of CDK9/CycT1 was adjusted depending of the activity of the enzyme lot and was chosen appropriate to have the assay in the linear range, typical concentrations were in the range of 0.5 μg/ml. The reaction was stopped by the addition of 3 μl of a solution of TR-FRET detection reagents (0.33 μM streptavidine-XL665 [Cisbio Bioassays, Codolet, France] and 1.67 nM anti-RB(pSer807/pSer811)-antibody from BD Pharmingen [#558389] and 2 nM LANCE EU-W1024 labeled anti-mouse IgG antibody [Perkin-Elmer, product no. AD0077]) in an aqueous EDTA-solution (167 mM EDTA, 0.2% (w/v) bovine serum albumin in 100 mM HEPES pH 7.5).
(§2) The resulting mixture was incubated 1 h at 22° C. to allow the formation of complex between the phosphorylated biotinylated peptide and the detection reagents. Subsequently the amount of phosphorylated substrate was evaluated by measurement of the resonance energy transfer from the Eu-chelate to the streptavidine-XL. Therefore, the fluorescence emissions at 620 nm and 665 nm after excitation at 350 nm was measured in a TR-FRET reader, e.g. a Pherastar (BMG Labtechnologies, Offenburg, Germany) or a Viewlux (Perkin-Elmer). The ratio of the emissions at 665 nm and at […] was taken as the measure for the amount of phosphorylated substrate. The data were normalised (enzyme reaction without inhibitor=0% inhibition, all other assay components but no enzyme=100% inhibition).
A general note: In TR-FRET formats the signal depends on donor and acceptor labels being close together.

Assay [2] concerns the target T2, CDK2/CycE (Homo sapiens, UniProt P24941).
T2 construct: GST; purchased ProQinase GmbH (Freiburg, Germany); host or cells: insect cells (Sf9)
Kind of assay: CDK2/CycE high ATP kinase assay (TR-FRET). Format: biochemical. To be noted: 2 mM ATP, Method 2b. On the procedure: 2b. CDK2/CycE High ATP Kinase Assay
CDK2/CycE-inhibitory activity of compounds of the present invention at 2 mM adenosine-tri-phosphate (ATP) was quantified employing the CDK2/CycE TR-FRET (TR-FRET=Time Resolved Fluorescence Energy Transfer) assay as described in the following paragraphs.
Recombinant fusion proteins of GST and human CDK2 and of GST and human CycE, expressed in insect cells (Sf9) and purified by Glutathion-Sepharose affinity chromatography, were purchase from ProQinase GmbH (Freiburg, Germany). As substrate for the kinase reaction biotinylated peptide biotin-Ttds-YISPLKSPYKISEG (C-terminus in amid form) was used which can be purchased e.g. form the company JERINI peptide technologies (Berlin, Germany).
as §1, with “CDK2/CycE” for “CDK9/CycT1”, “about 10 ng/ml.” for “in the range of 0.5 μg/ml.”, “(0.333” for “(0.33”, “AD0077, as an alternative a Terbium-cryptate-labeled anti-mouse IgG antibody from Cisbio Bioassays can be used])” for “AD0077])”
as §2

pIC50: −log10 of the molar value.

T1 sequence (P50750 whole entry): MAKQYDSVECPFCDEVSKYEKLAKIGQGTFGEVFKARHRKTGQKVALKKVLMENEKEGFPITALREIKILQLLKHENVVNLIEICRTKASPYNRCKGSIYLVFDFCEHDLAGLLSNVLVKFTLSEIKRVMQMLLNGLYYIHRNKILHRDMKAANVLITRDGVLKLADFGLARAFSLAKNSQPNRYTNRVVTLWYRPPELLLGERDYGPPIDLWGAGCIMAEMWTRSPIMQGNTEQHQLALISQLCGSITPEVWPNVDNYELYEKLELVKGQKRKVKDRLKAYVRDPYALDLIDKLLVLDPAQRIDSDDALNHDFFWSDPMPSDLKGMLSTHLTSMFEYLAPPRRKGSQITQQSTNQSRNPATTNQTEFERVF
T1 sequence (O60563 whole entry partner): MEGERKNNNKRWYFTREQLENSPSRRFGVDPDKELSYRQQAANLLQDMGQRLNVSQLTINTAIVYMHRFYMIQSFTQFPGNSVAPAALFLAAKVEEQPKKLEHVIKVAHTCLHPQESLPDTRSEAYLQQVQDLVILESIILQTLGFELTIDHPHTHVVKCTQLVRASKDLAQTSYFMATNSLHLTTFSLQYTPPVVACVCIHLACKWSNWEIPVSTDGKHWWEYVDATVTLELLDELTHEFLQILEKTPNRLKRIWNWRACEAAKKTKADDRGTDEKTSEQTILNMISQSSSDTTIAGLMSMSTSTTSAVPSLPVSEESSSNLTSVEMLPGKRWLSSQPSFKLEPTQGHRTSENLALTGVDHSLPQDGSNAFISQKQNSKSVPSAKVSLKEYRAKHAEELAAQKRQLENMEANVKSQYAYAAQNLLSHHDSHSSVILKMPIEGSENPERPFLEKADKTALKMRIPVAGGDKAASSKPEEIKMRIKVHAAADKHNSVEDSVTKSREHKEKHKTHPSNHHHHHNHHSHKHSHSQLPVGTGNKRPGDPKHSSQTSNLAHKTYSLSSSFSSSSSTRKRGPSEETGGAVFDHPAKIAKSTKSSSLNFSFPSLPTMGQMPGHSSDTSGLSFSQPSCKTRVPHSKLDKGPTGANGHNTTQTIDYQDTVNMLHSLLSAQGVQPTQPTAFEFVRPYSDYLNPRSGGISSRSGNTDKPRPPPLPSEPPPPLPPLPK

Turning to `CC1CCCNc2cc(ccc2F)-c2nc(ncc2F)Nc2cc(CS(C)(=O)=O)cc(c2)O1` (racemic) [Example 8, (rac)-3,20-difluoro-14-methyl-10-[(methylsulfonyl)methyl]-13-oxa-5,7,18,25-tetraazatetracyclo[17.3.1.1^2,6.1^8,12]pentacosa-1(23),2(25),3,5,8(24),9,11,19,21-nonaene], the pIC50 in assay [1] was 9.10; in assay [2], 6.33. The “Selectivity high ATP CDK9 over high ATP CDK2: IC50 (high ATP CDK2)/IC50 (high ATP CDK9)” value in assay [1] stood at 606.
The corresponding values for `CS(=N)(=O)Cc1cc2cc(c1)OCCCNc1cc(ccc1F)-c1nc(ncc1F)N2` (racemic) [Example 3, (rac)-3,19-difluoro-10-[(S-methylsulfonimidoyl)methyl]-13-oxa-5,7,17,24-tetraazatetracyclo[16.3.1.1^2,6.1^8,12]tetracosa-1(22),2(24),3,5,8(23),9,11,18,20-nonaene] are 8.74, 6.08 and 460.
The corresponding values for `CS(=N)(=O)Cc1cc2cc(c1)OCCCCNc1cc(ccc1F)-c1nc(ncc1F)N2` (racemic) [Example 2, (rac)-3,20-difluoro-10-[(S-methylsulfonimidoyl)methyl]-13-oxa-5,7,18,25-tetraazatetracyclo[17.3.1.1^2,6.1^8,12]pentacosa-1(23),2(25),3,5,8(24),9,11,19,21-nonaene] are 8.74, 6.81 and 87.
The corresponding values for `CC(C)(C)OC(=O)N=S(C)(=O)Cc1cc2cc(c1)OCCCCNc1cc(ccc1F)-c1nc(ncc1F)N2` (racemic) [Example 1, (rac)-tert-butyl [{[3,20-difluoro-13-oxa-5,7,18,25-tetraazatetracyclo[17.3.1.1^2,6.1^8,12]pentacosa-1(23),2(25),3,5,8(24),9,11,19,21-nonaen-10-yl]methyl}(methyl)oxido-λ^6-sulfanylidene]carbamate] are 8.47, 6.07 and 249.

Broadly, the pIC50 is the IC50 on a negative log10 scale, so that one unit is a factor of ten. Lower therefore signals a high IC50.

For the origin of these results see patent US11691986B2, “PTEFB inhibiting macrocyclic compounds” (Bayer Aktiengesellschaft, priority 2017, dated 2023).
